Assay results taken from patent US11000533B2, “Connective tissue monitoring, compositions for connective tissue treatment and methods for treating connective tissue” (priority 2011, dated 2021).
Several values for one entry are separate records, joined by “and”; a condition that tells them apart may be missing. Equal entries are not always repeated.

How the values were obtained:
acute tendon injury = test: Time until positive clinical response (disappearance of swelling, heat and pain on palpation) after medication institution; type: in vivo, horse; conditions: for Time until Clinical Response: acute tendon injury
Procedure: An acute tendon injury in a horse, is also known as a “Bowed Tendon”. This injury is clinically characterized by visible swelling of the tendon, heat to touch, as well as pain on palpation of the tendon. Clinical improvement of such a tendon injury is manifest by the diminution and ultimate absence of any swelling, heat and pain on palpation. The trials detailed above were carried out using the “polypaste” (multiple medications) approach to tendon injury in horses using “Tendon Guard Intense”. Three medications were used in initial tendon injury treatment: a proinflammatory cytokine inhibitor (Doxycycline 5 gm BD), an antioxidant or catechin (Green Tea extract/EGCG 5 gm BD) and an anti-inflammatory (Ibuprofen 5 gm BD). Throughout the testing process, a cohort of horses, were unable to take all of the individual ingredients planned, due to a number of reasons: The individual medication contraindications outlined, led to a cohort of horses in initial testing who consequently only received a single drug or a combination of two drugs (not three) to treat their acute tendon injury. These horses received either: All horses were carefully examined daily following acute injury and after institution of medication, by either an experienced veterinarian or trainer, for the presence of all of swelling, heat and pain on palpation of the tendon. A positive clinical response to treatment was defined as the absence of all three of swelling, heat and pain on palpation. The time from medication institution until disappearance of all three signs of swelling, heat and pain on palpation was recorded, as this was deemed the ultimate marker of clinical improvement of the tendon injury. Horses were immediately put back into light exercise once these acute signs had disappeared.

tendon injury = test: Additional studies with alternative combinations: resolution of pain and swelling; type: in vivo, horse; conditions: dose of 450 mg/day
Procedure: Additional studies have been performed with alternative anti-inflammatories and alternative NSAIDs. It is desirable to avoid using ibuprofen. The reason is ibuprofen stores in tissue and causes positive drug tests in racing horses. Copper indomethacin (CuIndomethacin) has been used as the anti-inflammatory and/or NSAID.
One of the advantages of CuIndomethacin is that it can be used in lower dosages. A dose of 200 mg (⅕ gram) has been used. It is hypothesized that a therapeutic effect may be achieved with 50 mg or ¼ of the usual dose or less by way of example.
In some embodiments, it is desirable to avoid using Doxycycline. The reason for this is that there is a worldwide push not to use antibiotics for purposes which are not infection related. For this reason, in som embodiments, curcumin, which is also a proinflammatory cytokine inhibitor, has been used at a dose of 450 mg/day with great success.

CC(C)Cc1ccc(C(C)C(=O)O)cc1 (stereo not shown) [Ibuprofen]
Time until Clinical Response (acute tendon injury; individual horses (8), Ibuprofen alone 5 gm BD): 20 days and 25 days and 19 days (2×) and 18 days and 23 days and 27 days and 24 days
Mean time until a positive clinical response to treatment (acute tendon injury; mean of 8 horses, Ibuprofen alone 5 gm BD): (21.9 days)

C[C@H]1c2cccc(O)c2C(=O)C2=C(O)[C@]3(O)C(=O)C(C(N)=O)=C(O)[C@@H](N(C)C)[C@@H]3[C@@H](O)[C@@H]21 [Doxycycline]
Time until Clinical Response (acute tendon injury; individual horses (6), Doxycycline alone 5 gms BD): 27 days (2×) and 21 days (2×) and 24 days and 28 days
Mean time until a positive clinical response to treatment (acute tendon injury; mean of 6 horses, Doxycycline alone 5 gms BD): (24.66 days)

O=C(O[C@@H]1Cc2c(O)cc(O)cc2O[C@@H]1c1cc(O)c(O)c(O)c1)c1cc(O)c(O)c(O)c1 [EGCG, epigallocatechin gallate]
Time until Clinical Response (acute tendon injury; individual horses (5), EGCG alone 5 gms BD): 24 days and 21 days (2×) and 28 days and 31 days
Mean time until a positive clinical response to treatment (acute tendon injury; mean of 5 horses, EGCG alone 5 gms BD): (25 days)

COc1cc(/C=C/C(=O)CC(=O)/C=C/c2ccc(O)c(OC)c2)ccc1O [curcumin]
Outcome of use as proinflammatory cytokine inhibitor in place of doxycycline (tendon injury): great success
